{
  "source": "patent US20190110981A1",
  "about": "“Cannabinoid Patch” (LIFE TECH GLOBAL, LLC, priority 2017, published 2019)",
  "key": {"[1]": {"test": "In vitro transdermal flux, human cadaver skin and Franz diffusion cell", "format": "in vitro ADME", "details": "for Flux over the course of about 20 hours: monolithic PIB patch with oil containing CBD/THC 1:1, Franz diffusion cell (FIG. 3)", "from_the_text": "FIG. 1. In vitro cumulative flux (micrograms/cm^2) of cannabidiol (CBD) through skin versus time (hours).\nFIG. 2. In vitro flux of tetrahydrocannabinol (THC) from ethanol/water, at each of the indicated ratios of ethanol/water.\nThe disclosure provides a graph of transdermal flux (FIG. 3). […] Alternatively, the oil contains CBD/THC in a 1:1 ratio (wt./wt.).\nThe following concerns reservoir patches. The composition inside the reservoir can have the consistency of a paste, but in an alternative embodiment, it can have the consistency of an oil, or it can have the consistency of a liquid, or it can have the consistency of a slurry. Parameters for FIG. 2 are as follows. Flux was allowed to occur for 24 hours, and FIG. 2 provides the value at 24 hours, […] The layers are 30 cm square and the hydrogel is one cm cubed or one milliliter. The layers have microporous membrane with […] pore size. The layers have occlusive heat seal around edges. There is a protective release liner. The embodiment can be made with or without silicone adhesive."}, "[2]": {"details": "as measured at room temperature; cited from earlier work"}},
  "data": [
    {"smiles": "C=C(C)[C@@H]1CCC(C)=C[C@H]1c1c(O)cc(CCCCC)cc1O", "note": "[CBD, cannabidiol]", "values": [
      {"measurement": "Flux of CBD from matrix with hemp oil of 92% CBD relative to adhesive matrix with crystalline CBD", "setting": "[1]; PIB monolithic patch, 15% CBD oil vs 15% crystalline CBD (FIG. 1)", "value": "about 5 times"},
      {"measurement": "Flux over the course of about 20 hours", "setting": "[1]; human cadaver skin", "value": "at least 4 micrograms per cm^2"},
      {"measurement": "Cumulative flux of CBD", "setting": "[1]; over ten hours, dermal patch with PIB and about 15% CBD oil, human cadaver skin, Franz diffusion cell", "value": "at least 20 micrograms CBD per cm^2"}
    ]},
    {"smiles": "O=S(=O)(O)CCNC1CCCCC1", "note": "[CHES]", "values": [
      {"measurement": "pKa", "setting": "[2]", "value": 9.5}
    ]},
    {"smiles": "O=S(=O)(O)CCN1CCN(CCS(=O)(=O)O)CC1", "note": "[PIPES]", "values": [
      {"measurement": "pKa", "setting": "[2]", "value": 6.8}
    ]},
    {"smiles": "CCCCCc1cc(O)c2c(c1)OC(C)(C)[C@@H]1CCC(C)=C[C@@H]21", "note": "[THC, delta-9-tetrahydrocannabinol]", "values": [
      {"measurement": "THC flux by solvent in reservoir patch", "setting": "[1]; THC oil mixed with ethanol and with EtOH/water of different ratios", "value": "highest flux from pure ethanol"},
      {"measurement": "Flux over the course of about 20 hours", "setting": "[1]; human cadaver skin", "value": "at least 1.0 micrograms per cm^2"},
      {"measurement": "THC flux from ethanol in reservoir patch relative to monolithic patch", "setting": "[1]; reservoir patch, THC oil mixed with ethanol (FIG. 2)", "value": 4, "unit": "times"},
      {"measurement": "Cumulative flux of THC", "setting": "[1]; reservoir patch, saturated ethanol/water about 60/40 with 25% THC oil, value at 24 hours (FIG. 2)", "value": "at least 50 micrograms THC per cm^2"}
    ]},
    {"smiles": "CCCCCCCCCCCCN1CCCCCC1=O", "note": "[azone, 1-dodecylazacycloheptane-2-one]", "values": [
      {"measurement": "Effect of enhancer on transdermal delivery of CBD from PIB", "setting": "[1]", "value": "double"}
    ]},
    {"smiles": "CCCCCCCC/C=C\\CCCCCCCC(=O)O", "note": "[oleic acid]", "values": [
      {"measurement": "Effect of enhancer on transdermal delivery of CBD from PIB", "setting": "[1]", "value": "double"}
    ]}
  ]
}
